Test results reported in ChEMBL document CHEMBL1208691, “Synthesis of polyhalo acridones as pH-sensitive fluorescence probes” (Bioorg Med Chem Lett, 2010).
Converted amounts (≈) assume the structure as drawn.

Experiments:
Format in all cases: functional, cell-based
SK-OV-3 = assay: Cytotoxicity against human SKOV3 cells by MTT assay
K562 = assay: Cytotoxicity against human K562 cells by MTT assay
HL-60 = assay: Cytotoxicity against human HL60 cells by MTT assay
A-431 = assay: Cytotoxicity against human A431 cells by MTT assay
HepG2 = assay: Cytotoxicity against human HepG2 cells by MTT assay

Structure (SMILES) | IC50 (SK-OV-3) [mg/L] | IC50 (K562) [mg/L] | IC50 (HL-60) [mg/L] | IC50 (A-431) [mg/L] | IC50 (HepG2) [mg/L]
NC(=O)c1c(Cl)c(Cl)c2[nH]c3ccccc3c(=O)c2c1Cl | 28 (≈ 82 µM) | 7.7 (≈ 22.5 µM) | 5.7 (≈ 16.7 µM) | 1.2 (≈ 3.51 µM) | 1.9 (≈ 5.56 µM)
NC(=O)c1c(F)c(Cl)c2[nH]c3ccccc3c(=O)c2c1F | 4 (≈ 13 µM) | 0.2 (≈ 0.648 µM) | 0.2 (≈ 0.648 µM) | 0.08 (≈ 0.259 µM) | 0.2 (≈ 0.648 µM)
NC(=O)c1c(F)c(F)c2[nH]c3ccccc3c(=O)c2c1F | 4.5 (≈ 15.4 µM) | 4.5 (≈ 15.4 µM) | 2 (≈ 6.84 µM) | 0.05 (≈ 0.171 µM) | 6.5 (≈ 22.2 µM)
NC(=O)c1c(F)c(Cl)c2[nH]c3ccc(Cl)cc3c(=O)c2c1F | 5.3 (≈ 15.4 µM) | 3 (≈ 8.74 µM) | 16.6 (≈ 48.4 µM) | 0.3 (≈ 0.874 µM) | 3.4 (≈ 9.91 µM)
NC(=O)c1c(F)c(F)c2[nH]c3ccc(Cl)cc3c(=O)c2c1F | 3.9 (≈ 11.9 µM) | 2.7 (≈ 8.27 µM) | 1.3 (≈ 3.98 µM) | 0.3 (≈ 0.918 µM) | 4.3 (≈ 13.2 µM)
